Source: US4528377A, “Substituted 3,4-diamino-1,2,5-thiadiazoles having histamine H2 -receptor antagonist activity” (Bristol-Myers Company, priority 1983, dated 1985)

Experiments:
histamine H2-receptors = molecular target: T1, histamine H2-receptors (Cavia porcellus, UniProt P47747); assay: Histamine H2-receptor antagonism, isolated guinea pig right atria assay; assay type: cell-based, Hartley strain guinea pigs; settings: for Kb: Schild plot, 30-minute incubation, 95% confidence limits in parentheses, read-out: KB (dissociation constant); for Potency Ratio (cimetidine = 1.0): relative to cimetidine
T1 construct: The spontaneously beating right atrium was dissected free from other tissues; from tissue; host or cells: isolated right atrium of male Hartley strain guinea pigs
Method: Subsequent investigations by Hughes and Coret, Proc. Soc. […] Black et al., Agents and Actions, 3, 133 (1973) and Brimblecombe et al., Fed. […] The present comparative studies were carried out using a modification of the procedure reported by Reinhardt et al., Agents and Actions, 4, 217 (1974).
The spontaneously beating right atrium was dissected free from other tissues and a silk thread (4-0) attached to each end. […] Atrial contractions were recorded isometrically by means of a Grass FT 0.03 force displacement transducer and recordings of contractile force and rate were made with a Beckman RP Dynograph.

gastric acid secretion = assay: Gastric antisecretory activity in the gastric fistula rat; assay type: in vivo, Long Evans rats; settings: sc, relative to cimetidine
peptic ulcer disease = settings: clinical evaluation, Gray et al., Lancet, 1, 8001 (1977); cited from earlier work

T1 sequence (P47747 whole entry): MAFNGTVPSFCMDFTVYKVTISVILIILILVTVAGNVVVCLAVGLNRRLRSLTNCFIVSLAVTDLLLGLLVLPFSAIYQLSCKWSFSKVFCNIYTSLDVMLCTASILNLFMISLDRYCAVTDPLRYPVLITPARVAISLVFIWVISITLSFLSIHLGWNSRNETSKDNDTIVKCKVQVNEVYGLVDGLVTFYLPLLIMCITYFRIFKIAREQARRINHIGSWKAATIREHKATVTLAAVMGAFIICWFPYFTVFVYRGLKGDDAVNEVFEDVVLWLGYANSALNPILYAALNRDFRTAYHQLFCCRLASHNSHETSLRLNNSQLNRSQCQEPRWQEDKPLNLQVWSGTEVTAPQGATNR

| Structure (SMILES) | Kb (histamine H2-receptors) | Potency Ratio (cimetidine = 1.0) (histamine H2-receptors) | Potency Ratio (cimetidine = 1.0) (gastric acid secretion) | effect in treatment of peptic ulcer disease (peptic ulcer disease) |
| --- | --- | --- | --- | --- |
| Nc1nsnc1NCCCOc1cccc(CN2CCCC2)c1 [Example 4, 3-Amino-4-[3-(3-pyrrolidinomethylphenoxy)propylamino]-1,2,5-thiadiazole] | 4 nM | 102 | 20 | – |
| Nc1nsnc1NCCCOc1cccc(CN2CCCCC2)c1 [Example 1, 3-Amino-4-[3-(3-piperidinomethylphenoxy)propylamino]-1,2,5-thiadiazole] | 3 nM | 137 | 37 | – |
| CN/C(=N/CCSCc1nc[nH]c1C)NC#N [cimetidine] | – | – | – | effective therapeutic agent in the treatment of peptic ulcer disease |
| Cc1cc(CSCCNc2nsnc2N)sc1CN(C)C [Example 3, 3-Amino-4-{2-[(5-dimethylaminomethyl-4-methyl-2-thienyl)methylthio]ethylamino}-1,2,5-thiadiazole] | – | – | ~ 7 | – |
| CN(C)Cc1ccc(CSCCNc2nsnc2N)o1 [Example 2, 3-Amino-4-{2-[(5-dimethylaminomethyl-2-furyl)methylthio]ethylamino}-1,2,5-thiadiazole] | – | – | 4.5 | – |
